Measured values: ChEMBL document CHEMBL1201862, “PubChem BioAssay data set” (2004)
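Five compound concentrations were applied to cells in 96-well plates for 48 hours; endpoints were derived by simple linear interpolation of the resulting dose-response curve. Abbreviation: GI50, concentration required for 50% inhibition of growth.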 The source made the active and inactive calls. Rule as the data show it: active = GI50 up to about 1.1 µM and inactive = higher.

Assays:
Experiment in all cases: NCI tumour cell line growth inhibition, 48 h
[1] = tested on: HOP-92
[2] = tested on: OVCAR-4
[3] = tested on: MOLT-4
[4] = tested on: HOP-62
[5] = tested on: OVCAR-3
[6] = tested on: SK-MEL-2
[7] = tested on: KM-20L2
[8] = tested on: DMS-114
[9] = tested on: OVCAR-5
[10] = tested on: SF-295
[11] = tested on: SNB-19
[12] = tested on: A549
[13] = tested on: NCI-H23
[14] = tested on: COLO 205
[15] = tested on: SK-MEL-28
[16] = tested on: SR
[17] = tested on: A498
[18] = tested on: HT-29
[19] = tested on: U-251
[20] = tested on: DLD-1
[21] = tested on: KM12
[22] = tested on: OVCAR-8
[23] = tested on: Malme-3M
[24] = tested on: UACC-62
[25] = tested on: DMS-273
[26] = tested on: NCI-H460
[27] = tested on: HCT-15
[28] = tested on: HOP-18
[29] = tested on: SNB-75
[30] = tested on: UACC-257
[31] = tested on: NCI-H226
[32] = tested on: LOX IMVI
[33] = tested on: SF-268
[34] = tested on: ACHN
[35] = tested on: RXF 393
[36] = tested on: TK-10
[37] = tested on: IGROV-1
[38] = tested on: SW-620
[39] = tested on: HCT-116
[40] = tested on: M14
[41] = tested on: SK-OV-3
[42] = tested on: K562
[43] = tested on: SN12C
[44] = tested on: EKVX
[45] = tested on: CCRF-CEM
[46] = tested on: HL-60
[47] = tested on: XF498
[48] = tested on: UO-31
[49] = tested on: SF-539
[50] = tested on: SK-MEL-5
[51] = tested on: RPMI-8226
[52] = tested on: HCC 2998
[53] = tested on: NCI-H522
[54] = tested on: CAKI-1
[55] = tested on: M19-MEL
[56] = tested on: LXFL 529
[57] = tested on: SNB-78
[58] = tested on: 786-0

With `C#CCCCCC#Cc1ccccc1C(=O)OC` the GI50 [1] was 24.9 µM (inactive), the GI50 [2] was 58.9 µM (inactive) and the GI50 [3] was 12.7 µM (inactive). The GI50 [4] was > 100 µM (inactive), the GI50 [5] was 32.5 µM (inactive) and the GI50 [6] was 39.7 µM (inactive). The GI50 [7] was 58.2 µM (inactive), the GI50 [8] was 17.3 µM (inactive) and the GI50 [9] was 52.8 µM (inactive). The GI50 [10] was 37.3 µM (inactive), the GI50 [11] was > 100 µM (inactive) and the GI50 [12] was > 100 µM (inactive). The GI50 [13] was 37.4 µM (inactive), the GI50 [14] was > 100 µM (inactive) and the GI50 [15] was 25.8 µM (inactive). The GI50 [16] was 2.28 µM (inactive), the GI50 [17] was > 100 µM (inactive) and the GI50 [18] was 30.5 µM (inactive). For the same compound, the GI50 [19] was 65.6 µM (inactive), the GI50 [20] was 47.2 µM (inactive) and the GI50 [21] was 58.2 µM (inactive). The GI50 [22] was 15.5 µM (inactive), the GI50 [23] was 77.6 µM (inactive) and the GI50 [24] was 32.7 µM (inactive). The GI50 [25] was 38.3 µM (inactive), the GI50 [26] was > 100 µM (inactive) and the GI50 [27] was 63.8 µM. The GI50 [28] was > 100 µM (inactive), the GI50 [29] was 20.6 µM (inactive) and the GI50 [30] was 71.8 µM (inactive). For the same compound, the GI50 [31] was 43.5 µM (inactive), the GI50 [32] was 14.8 µM (inactive) and the GI50 [33] was 21 µM (inactive). For the same compound, the GI50 [34] was 64.3 µM (inactive), the GI50 [35] was 21.4 µM (inactive) and the GI50 [36] was > 100 µM (inactive). The GI50 [37] was 89.3 µM (inactive), the GI50 [38] was 21.1 µM (inactive) and the GI50 [39] was 11 µM (inactive). The GI50 [40] was > 100 µM (inactive), the GI50 [41] was > 100 µM (inactive) and the GI50 [42] was 9.93 µM (inactive). The GI50 [43] was 35 µM (inactive), the GI50 [44] was 85.1 µM (inactive) and the GI50 [45] was 2.91 µM (inactive). The GI50 [46] was 10.2 µM (inactive), the GI50 [47] was 65.8 µM (inactive) and the GI50 [48] was 40.5 µM (inactive). The GI50 [49] was > 100 µM (inactive), the GI50 [50] was 58.6 µM (inactive) and the GI50 [51] was 13.1 µM (inactive). For the same compound, the GI50 [52] was > 100 µM (inactive).
For `NC1=NC(c2ccccc2)CC(c2cc(Cl)ccc2O)=N1` (configuration not stated), the GI50 [53] was 15.5 µM (inactive), the GI50 [1] was 19.1 µM (inactive) and the GI50 [2] was 17.9 µM (inactive). For the same compound, the GI50 [3] was 14.2 µM (inactive), the GI50 [4] was 16.2 µM (inactive) and the GI50 [5] was 17.5 µM (inactive). The GI50 [7] was 17.4 µM (inactive), the GI50 [8] was 12.7 µM (inactive) and the GI50 [9] was 19.9 µM (inactive). The GI50 [54] was 14.9 µM (inactive), the GI50 [10] was 17.3 µM (inactive) and the GI50 [11] was 16.7 µM (inactive). For the same compound, the GI50 [12] was 14.3 µM (inactive), the GI50 [13] was 15.5 µM (inactive) and the GI50 [14] was 19.5 µM (inactive). For the same compound, the GI50 [55] was 14.5 µM (inactive), the GI50 [15] was 18.7 µM (inactive) and the GI50 [16] was 15.8 µM (inactive). The GI50 [17] was 20.1 µM (inactive), the GI50 [18] was 17.5 µM (inactive) and the GI50 [19] was 16.3 µM (inactive). For the same compound, the GI50 [20] was 13.2 µM (inactive), the GI50 [21] was 13.7 µM (inactive) and the GI50 [22] was 16.2 µM (inactive). The GI50 [23] was 21.8 µM (inactive), the GI50 [24] was 15.8 µM (inactive) and the GI50 [56] was 15 µM (inactive). For the same compound, the GI50 [25] was 13 µM (inactive), the GI50 [26] was 15.5 µM (inactive) and the GI50 [28] was 17.7 µM (inactive). For the same compound, the GI50 [29] was 17.7 µM (inactive), the GI50 [30] was 19.9 µM (inactive) and the GI50 [31] was 21.2 µM (inactive). For the same compound, the GI50 [57] was 19.5 µM (inactive), the GI50 [32] was 15.5 µM (inactive) and the GI50 [33] was 16 µM (inactive). The GI50 [34] was 15.3 µM (inactive), the GI50 [35] was 17.3 µM (inactive) and the GI50 [36] was 25.1 µM (inactive). The GI50 [37] was 19.3 µM (inactive), the GI50 [38] was 14.1 µM (inactive) and the GI50 [39] was 14 µM (inactive). For the same compound, the GI50 [40] was 16.9 µM (inactive), the GI50 [41] was 17.9 µM (inactive) and the GI50 [42] was 10.1 µM (inactive). The GI50 [43] was 13.6 µM (inactive), the GI50 [44] was 15.3 µM (inactive) and the GI50 [45] was 22.1 µM (inactive). For the same compound, the GI50 [46] was 16.1 µM (inactive), the GI50 [47] was 19.6 µM (inactive) and the GI50 [48] was 15.2 µM (inactive). For the same compound, the GI50 [49] was 15 µM (inactive), the GI50 [58] was 16.1 µM (inactive) and the GI50 [51] was 15.2 µM (inactive). For the same compound, the GI50 [52] was 15.9 µM (inactive).
